Experimental findings from EP4700041A1, “NOVEL PEPTIDE HAVING ACTIVITY OF RETARDING DEGRADATION OF HYALURONIC ACID AND USES THEREOF” (Caregen Co., Ltd., priority 2023, dated 2026) are described below.

Ends that are not written are not given here.

Data set [1] in a line: Delay of hyaluronic acid degradation by reactive oxygen species in hyaluronic acid solution (viscosity, rheometer). The following applies: 1.5 wt% hyaluronic acid solution in PBS; peptide 100 ppm, 1000 ppm, 5000 ppm; 500 mM H2O2; 60 and 180 minutes; FIG. 5. On the procedure: Hyaluronic acid was dissolved in PBS to a concentration of 1.5 wt% and hydrated, and 10 g of this solution was dispensed into each conical tube. Peptide solutions were added to the dispensed hyaluronic acid solutions so that the final peptide concentrations were 0 ppm (no addition), 100 ppm, 1000 ppm, and 5000 ppm, respectively. 2 mL of 500 mM hydrogen peroxide (H2O2) was added to each. Viscosity was measured using a rheometer (single shear stress) by sampling at 0, 30, 60, and 180 minutes to compare the viscosity values according to the peptide concentration. As above, 1.5 wt% hyaluronic acid solutions containing peptides at each concentration were treated with hydrogen peroxide to maintain the degradation reaction by reactive oxygen species for 60 and 180 minutes, thereby degrading hyaluronic acid. After the degradation reaction, the viscosity of each hyaluronic acid solution was measured to confirm the degradation delaying efficacy.

A short description of data set [2]: Delay of hyaluronic acid degradation by reactive oxygen species in BDDE-cross-linked filler (Congo Red diffusion, absorbance 500 nm). The following applies: 37°C, FIG. 6. The procedure: A 1,4-Butanediol diglycidyl ether (BDDE)-cross-linked hyaluronic acid filler with or without the peptide of Preparation Example 1 was prepared, and Congo Red and hyaluronidase (HAdase) as absorbing dyes were prepared. 20 µL of 1 mM Congo Red was added to each 1.5 mL eppendorf tube, and 100 µL each of the peptide-free filler (control filler) and the peptide-containing filler were added on the absorbing dye. Each was treated with 350 µL of 500 mM hydrogen peroxide (H2O2). Each tube was placed in an incubator at 37°C, and 100 µL of the sample supernatant was collected at time points of 1 hour, 3 hours, 6 hours, 24 hours, 48 hours, and 72 hours and transferred to 96-wells. The absorbance was measured at 500 nm using a microplate reader (SpectraMax iD3, Molecular devices, USA). As above, BDDE-cross-linked hyaluronic acid filler samples with or without the peptide were prepared, and the degree of degradation of hyaluronic acid filler by reactive oxygen species was compared depending on the presence or absence of peptide. The degree of degradation of hyaluronic acid filler was measured by the change in absorbance due to the diffusion of dye. That is, the principle that the flowability of the sample increases when hyaluronic acid is degraded by reactive oxygen species and thus the diffusion of the dye increases was utilized.

Data set [3] is described as follows: pH stability of the peptide (HPLC area). In kind it is physicochemical. The following applies: 1000 ppm solution, pH 4 to pH 10, HPLC area compared with pH 7; FIG. 7b. The procedure: The evaluation of pH stability was performed as follows. A diluted solution of the peptide of Preparation Example 1 at a concentration of 1000 ppm was prepared, and the initial pH value of the solution was measured (pH = 3.21). 0.5 M NaOH was added so as to titrate the pH of the solution to pH 4, pH 7, and pH 10, respectively. Each sample was filtered through a 0.22 µm filter. The area values were compared based on pH 7 measured by HPLC.

Data set [4] can be described thus: Thermal stability of the peptide (HPLC area). It counts as physicochemical. The following applies: 1000 ppm solution, 50°C vs 25°C, 72 hours, FIG. 7a. On the procedure: The evaluation of thermal stability was performed as follows. A diluted solution of the peptide of Preparation Example 1 at a concentration of 1000 ppm was prepared, dispensed into 50 mL conical tubes, and placed in an incubator at 25°C and 50°C. After 72 hours, 1 mL of each sample was filtered through a 0.22 µm filter. The area values were compared at 25°C based on pH 7 measured by HPLC.

Consider “KIWNLEPSRNGT [SEQ ID NO: 1, KIWNLEPSRNGT]”, for which, in data set [1], the “degradation of hyaluronic acid by reactive oxygen species (viscosity)” value was “degradation of hyaluronic acid was delayed as the concentration of peptide increased”. This sequence showed a degradation delay improved in data set [2] (BDDE-cross-linked hyaluronic acid filler with peptide vs peptide-free control filler, 24 hours after treatment with 500 mM hydrogen peroxide) not below 50%. Besides, the “effect of delaying degradation” value in data set [2] (BDDE-cross-linked hyaluronic acid filler with peptide, treated for 48 hours with 500 mM hydrogen peroxide) amounted to 85%. Further, the pH stability result in data set [3] is given as “stable”. Also, in data set [4], the thermal stability result is recorded as “stable”.
